Laboratory results published in PubChem BioAssay AID330 (DTP/NCI, 2004).
Values joined by “and” are separate entries in the source; they are usually repeats but may differ in a detail not shown here. Equal entries are not always repeated. Inconclusive results and toxic doses are left out.

Test system: P388 leukemia ip, CD2F1 mice, survival T/C
Test: NCI In Vivo Anticancer Drug Screen. Data for tumor model P388 Leukemia (intraperitoneal) in CD2F1 (CDF1) mice
Settings: endpoint: median survival time, higher = longer survival
Method in brief: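 Mice carrying the transplanted tumor received test compound or vehicle. Survival was recorded in each group, and the value is the treated-group measurement divided by that of the vehicle-treated control group.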

[1] = dose: 60.0 mg/kg/injection, schedule: Q01DX005 (ip), vehicle: saline with Tween-80
[2] = dose: 120.0 mg/kg/injection, schedule: Q01DX005 (ip), vehicle: saline with Tween-80
[3] = dose: 240.0 mg/kg/injection, schedule: Q01DX005 (ip), vehicle: saline with Tween-80
[4] = dose: 50.0 mg/kg/injection, schedule: Q01DX005 (ip), vehicle: saline with Tween-80
[5] = dose: 100.0 mg/kg/injection, schedule: Q01DX005 (ip), vehicle: saline with Tween-80
[6] = dose: 200.0 mg/kg/injection, schedule: Q01DX005 (ip), vehicle: saline with Tween-80
[7] = dose: 25.0 mg/kg/injection, schedule: Q01DX009 (ip), vehicle: distilled water + Tween-80
[8] = dose: 50.0 mg/kg/injection, schedule: Q01DX009 (ip), vehicle: saline with Tween-80
[9] = dose: 100.0 mg/kg/injection, schedule: Q01DX009 (ip), vehicle: saline with Tween-80
[10] = dose: 200.0 mg/kg/injection, schedule: Q01DX009 (ip), vehicle: saline with Tween-80
[11] = dose: 6.25 mg/kg/injection, schedule: Q01DX009 (ip), vehicle: saline
[12] = dose: 12.5 mg/kg/injection, schedule: Q01DX009 (ip), vehicle: saline
[13] = dose: 25.0 mg/kg/injection, schedule: Q01DX009 (ip), vehicle: saline
[14] = dose: 50.0 mg/kg/injection, schedule: Q01DX005 (ip), vehicle: Klucel (hydroxypropylcellulose) (HPC)
[15] = dose: 100.0 mg/kg/injection, schedule: Q01DX005 (ip), vehicle: Klucel (hydroxypropylcellulose) (HPC)
[16] = dose: 200.0 mg/kg/injection, schedule: Q01DX005 (ip), vehicle: Klucel (hydroxypropylcellulose) (HPC)
[17] = dose: 100.0 mg/kg/injection, schedule: Q04DX003 (ip), vehicle: Klucel (hydroxypropylcellulose) (HPC)
[18] = dose: 200.0 mg/kg/injection, schedule: Q04DX003 (ip), vehicle: Klucel (hydroxypropylcellulose) (HPC)
[19] = dose: 400.0 mg/kg/injection, schedule: Q04DX003 (ip), vehicle: Klucel (hydroxypropylcellulose) (HPC)
[20] = dose: 60.0 mg/kg/injection, schedule: Q01DX005 (ip), vehicle: Klucel (hydroxypropylcellulose) (HPC)
[21] = dose: 120.0 mg/kg/injection, schedule: Q01DX005 (ip), vehicle: Klucel (hydroxypropylcellulose) (HPC)
[22] = dose: 240.0 mg/kg/injection, schedule: Q01DX005 (ip), vehicle: Klucel (hydroxypropylcellulose) (HPC)

With `CN(C)C1C(=O)C(C(=O)NCN2CCOB(c3ccccc3)OCC2)=C(O)C2(O)C(O)=C3C(=O)C4C(O)=CC=CC4C(C)(O)C3CC12` (stereo unspecified) the T/C (dose: 12.5 mg/kg/injection, schedule: Q04DX002 (ip), vehicle: saline) was 101 % of control, the T/C (dose: 25.0 mg/kg/injection, schedule: Q04DX002 (ip), vehicle: saline) was 105 % of control and the T/C (dose: 50.0 mg/kg/injection, schedule: Q04DX002 (ip), vehicle: saline) was 108 % of control.
In the case of `O=C(Nc1ccc(NC2=NCCN2)cc1)c1cccc(C(=O)Nc2ccc(NC3=NCCN3)cc2)c1`, the T/C (dose: 5.0 mg/kg/injection, schedule: Q01DX009 (ip), vehicle: saline with Tween-80) is reported as 109 % of control and the T/C (dose: 30.0 mg/kg/injection, schedule: Q01DX009 (ip), vehicle: saline with Tween-80) is reported as 100 % of control.
In the case of `O=C(Cn1ccnc1)N1CCN(c2ccccc2)CC1`, the T/C [1] is reported as 100 % of control, the T/C [2] is reported as 94 % of control and the T/C [3] is reported as 96 % of control.
In the case of `O/N=C(Sc1ccccn1)/C(=N/O)Sc1ccccn1`, the T/C [4] is reported as 101 % of control, the T/C [5] is reported as 109 % of control and the T/C [6] is reported as 113 % of control.
With `COc1ccc2nc(-c3ccccn3)ccc2c1` the T/C [7] was 106 % of control, the T/C (dose: 50.0 mg/kg/injection, schedule: Q01DX009 (ip), vehicle: distilled water + Tween-80) was 106 % of control and the T/C (dose: 100.0 mg/kg/injection, schedule: Q01DX009 (ip), vehicle: distilled water + Tween-80) was 101 % of control. For the same molecule, the T/C (dose: 200.0 mg/kg/injection, schedule: Q01DX009 (ip), vehicle: distilled water + Tween-80) was 93 % of control and the T/C (dose: 400.0 mg/kg/injection, schedule: Q01DX009 (ip), vehicle: distilled water + Tween-80) was 92 % of control.
For `ClCSc1nc2cc(Cl)ccc2s1`, the T/C [8] was 95 % of control, the T/C [9] was 100 % of control and the T/C [10] was 95 % of control.
In the case of `O=C1CC2C=CC2C1` (stereo unspecified), the T/C [11] is reported as 113 % of control, the T/C [12] is reported as 103 % of control and the T/C [13] is reported as 103 % of control. The T/C [10] was 95 % of control.
`O/N=C1C=C/C(=C/c2ccccc2)c2ccccc2/1` was tested, and the T/C [14] was 96 % of control, the T/C [15] was 92 % of control and the T/C [16] was 92 % of control.
For `C[CH2][Sn][Cl]`, the T/C [11] was 98 % of control, the T/C [12] was 98 % of control and the T/C [13] was 91 % of control.
`COc1cc(OC)c(OC)cc1/C=C/[N+](=O)[O-]` was tested, and the T/C [17] was 102 % of control, the T/C [18] was 100 % of control and the T/C [19] was 111 % of control.
With `Cc1nc(C(=O)c2ccccc2)cnc1-c1ccccc1` the T/C [20] was 92 % of control, the T/C [21] was 88 % of control and the T/C [22] was 91 % of control.
For `N#CC(Br)CNC(=O)Oc1ccccc1` (stereo unspecified), the T/C [14] was 104 % of control, the T/C [15] was 106 % of control and the T/C [16] was 105 % of control.
`C[N+]1(Cc2ccc(C(N)=O)cc2)CCC(CCC2CC[N+](C)(Cc3ccc(C(N)=O)cc3)CC2)CC1` (stereo unspecified) was tested, and the T/C (dose: 0.78 mg/kg/injection, schedule: Q01DX005 (ip), vehicle: saline with Tween-80) was 93 % of control, the T/C (dose: 1.56 mg/kg/injection, schedule: Q01DX005 (ip), vehicle: saline with Tween-80) was 101 % of control and the T/C (dose: 3.13 mg/kg/injection, schedule: Q01DX005 (ip), vehicle: saline with Tween-80) was 90 % of control.
`NC(=S)NC12CC3CC(CC(C3)C1)C2` was tested, and the T/C (dose: 50.0 mg/kg/injection, schedule: Q04DX002 (ip), vehicle: saline with Tween-80) was 99 % of control, the T/C (dose: 100.0 mg/kg/injection, schedule: Q04DX002 (ip), vehicle: saline with Tween-80) was 98 % of control and the T/C (dose: 200.0 mg/kg/injection, schedule: Q04DX002 (ip), vehicle: saline with Tween-80) was 98 % of control.
With `CCOC(=O)c1sc(=S)n(C)c1C` the T/C (dose: 12.5 mg/kg/injection, schedule: Q01DX005 (ip), vehicle: saline with Tween-80) was 100 % of control, the T/C (dose: 25.0 mg/kg/injection, schedule: Q01DX005 (ip), vehicle: saline with Tween-80) was 103 % of control and the T/C [4] was 102 % of control and 104 % of control.
In the case of `ClC(Cl)=C(Cl)Sc1ccccc1`, the T/C [4] is reported as 105 % of control, the T/C [5] is reported as 105 % of control and the T/C [6] is reported as 107 % of control.
In the case of `Fc1cccc(CSC(=S)Nc2ccc(F)c(F)c2)c1`, the T/C (dose: 50.0 mg/kg/injection, schedule: Q01DX009 (ip), vehicle: saline) is reported as 116 % of control, the T/C (dose: 100.0 mg/kg/injection, schedule: Q01DX009 (ip), vehicle: saline) is reported as 105 % of control and the T/C (dose: 200.0 mg/kg/injection, schedule: Q01DX009 (ip), vehicle: saline) is reported as 115 % of control.
For `CS(=O)(=O)Nc1ccc(Nc2c3ccccc3nc3cc([N+](=O)[O-])ccc23)cc1`, the T/C (dose: 0.09 mg/kg/injection, schedule: Q01DX009 (ip), vehicle: saline with Tween-80) was 121 % of control, the T/C (dose: 0.75 mg/kg/injection, schedule: Q01DX009 (ip), vehicle: saline with Tween-80) was 169 % of control and the T/C (dose: 1.5 mg/kg/injection, schedule: Q01DX009 (ip), vehicle: saline with Tween-80) was 169 % of control. The T/C (dose: 3.0 mg/kg/injection, schedule: Q01DX009 (ip), vehicle: saline with Tween-80) was 177 % of control.
For `Oc1ccc(Nc2ccc(N(CCCl)CCCl)cc2)c2ccccc12`, the T/C (dose: 6.25 mg/kg/injection, schedule: Q01DX001 (ip), vehicle: Klucel (hydroxypropylcellulose) (HPC)) was 123 % of control and the T/C (dose: 50.0 mg/kg/injection, schedule: Q01DX001 (ip), vehicle: Klucel (hydroxypropylcellulose) (HPC)) was 192 % of control and 195 % of control.
In the case of `Oc1cccnc1[Se]`, the T/C [20] is reported as 112 % of control, the T/C [21] is reported as 106 % of control and the T/C [22] is reported as 110 % of control.
With `COc1ccc2c(c1O)-c1cccc3c1[C@@H](C2)N(CCCl)CC3` the T/C (dose: 1.0 mg/kg/injection, schedule: Q01DX009 (ip), vehicle: Klucel (hydroxypropylcellulose) (HPC)) was 101 % of control and 105 % of control, the T/C (dose: 2.0 mg/kg/injection, schedule: Q01DX009 (ip), vehicle: Klucel (hydroxypropylcellulose) (HPC)) was 99 % of control and 101 % of control and the T/C (dose: 4.0 mg/kg/injection, schedule: Q01DX009 (ip), vehicle: Klucel (hydroxypropylcellulose) (HPC)) was 106 % of control and 113 % of control. For the same molecule, the T/C (dose: 4.0 mg/kg/injection, schedule: Q01DX009 (ip), vehicle: saline) was 151 % of control, the T/C (dose: 6.25 mg/kg/injection, schedule: Q04DX003 (ip), vehicle: other) was 104 % of control and 118 % of control and the T/C (dose: 8.0 mg/kg/injection, schedule: Q01DX009 (ip), vehicle: Klucel (hydroxypropylcellulose) (HPC)) was 106 % of control. For the same molecule, the T/C (dose: 8.0 mg/kg/injection, schedule: Q01DX009 (ip), vehicle: saline) was 114 % of control and 120 % of control, the T/C (dose: 12.5 mg/kg/injection, schedule: Q04DX003 (ip), vehicle: other) was 90 % of control and the T/C (dose: 25.0 mg/kg/injection, schedule: Q04DX003 (ip), vehicle: other) was 116 % of control.
In the case of `CC1=C(C(N)=O)C(/C=C/c2ccccc2)NC(=S)N1` (stereo unspecified), the T/C [20] is reported as 106 % of control, the T/C [21] is reported as 100 % of control and the T/C [22] is reported as 100 % of control.
With `Cc1nn(C(=O)c2ccncc2)c(C)c1N=Nc1ccccc1Cl` the T/C [17] was 96 % of control, the T/C [18] was 95 % of control and the T/C [19] was 97 % of control.
In the case of `O=C(Nc1cccc(S(=O)(=O)F)c1)Oc1ccc([N+](=O)[O-])cc1`, the T/C [1] is reported as 113 % of control, the T/C [2] is reported as 111 % of control and the T/C [3] is reported as 93 % of control.
With `CCN(CC)C(=O)C(F)C(F)(F)C(F)(F)COCc1ccccc1` (stereo unspecified) the T/C [8] was 99 % of control, the T/C [9] was 100 % of control and the T/C [10] was 100 % of control.
For `CCN(CC)CCCC(C)Nc1cc(C)nc2c1ccc1c2ccc2c(NC(C)CCCN(CC)CC)cc(C)nc21` (stereo unspecified), the T/C (dose: 12.5 mg/kg/injection, schedule: Q01DX009 (ip), vehicle: distilled water + Tween-80) was 118 % of control and the T/C [7] was 111 % of control.
For `O=S1(=O)CC(c2ccccc2)(N2CCOCC2)C1`, the T/C [8] was 94 % of control, the T/C [9] was 96 % of control and the T/C [10] was 105 % of control.
With `N#CC1CPCCC1N` (stereo unspecified) the T/C [8] was 102 % of control, the T/C [9] was 106 % of control and the T/C [10] was 114 % of control.
